Each compound was assayed against T1, FAAH (Homo sapiens, UniProt O00519) (assay: FAAH whole cell assay, CHO cells expressing human FAAH). Details: read-out: FAAH Human Whole Cell IC50.
T1 construct: The full length FAAH was subcloned into the mammalian expression vector, pcDEF.neo; expressed in transfected cells; cDNA from Origene
T1 sequence (O00519 1-579): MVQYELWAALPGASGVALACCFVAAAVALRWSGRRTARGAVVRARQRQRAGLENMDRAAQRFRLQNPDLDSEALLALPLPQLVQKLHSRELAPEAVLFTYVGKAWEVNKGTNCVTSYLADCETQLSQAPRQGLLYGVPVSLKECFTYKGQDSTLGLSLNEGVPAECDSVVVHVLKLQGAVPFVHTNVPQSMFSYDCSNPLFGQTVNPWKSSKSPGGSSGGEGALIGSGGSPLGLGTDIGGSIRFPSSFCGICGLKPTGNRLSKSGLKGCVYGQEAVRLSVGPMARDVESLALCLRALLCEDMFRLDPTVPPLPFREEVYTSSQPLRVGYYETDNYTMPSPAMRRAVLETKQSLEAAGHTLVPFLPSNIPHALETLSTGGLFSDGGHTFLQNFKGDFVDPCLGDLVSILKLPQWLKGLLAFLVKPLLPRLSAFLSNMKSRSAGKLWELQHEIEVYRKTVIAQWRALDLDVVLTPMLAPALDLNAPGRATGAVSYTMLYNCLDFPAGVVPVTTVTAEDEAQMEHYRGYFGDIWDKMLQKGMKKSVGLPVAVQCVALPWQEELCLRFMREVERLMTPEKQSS
Format: cell-based
Excerpt: (§1) To assist in assay development stable cell lines for human, murine and rat full length FAAH were developed. Human FAAH cDNA (Accession No: NM_001441.1) was purchased from Origene (Rockville, Md.). The full length FAAH was subcloned into the mammalian expression vector, pcDEF.neo, using XbaI and […] restriction sites and used for stable cell line generation.
(§2) Murine (accession number NM_010173) and Rat FAAH (accession number NM_024132) was amplified by reverse transcriptase polymerase chain reaction (RT-PCR) from brain cDNA (BD Biosciences, San Jose, Calif.) using primers 1 and 2 or primers 1 and 3 respectively (see Table). The resulting PCR product was ligated into pCR4TOPO and DNA sequence confirmed. The full length murine FAAH was subcloned into the mammalian expression vector, pcDEFneo using either EcoRI (murine) or KpnI and EcoRI (rat) restriction sites. Chinese hamster ovary cells (CHO) were transfected following manufacturers protocol (AMAXA). Forty eight hours post transfection, cells were trypsinized and transferred to 96 well plates in Iscove's DMEM media supplemented with 2 mM Glutamine, 10% fetal calf serum, 1 mg/ml geneticin and HT Supplement (0.1 mM sodium hypoxanthine, 0.016 mM thymidine) in order to isolate single clones. Following selection in geneticin, individual clones were selected and FAAH activity was assessed using a whole cell fluorescent anandamide assay, modified from Ramarao et al (2005). Following removal of tissue culture media cells were dislodged following addition of Cellstripper (Mediatech, Inc. Manassas, Va.) and transferred to 96 well black clear bottom assay plate, centrifuged at 1,000 rpm for 3 mins and media removed and replaced with assay buffer (50 mM Tris pH8.0, 1 mM EDTA, 0.1% fatty acid free BSA). The reaction was initiated by addition of fluorescent substrate, AMC Arachidonoyl Amide (Cayman Chemical, Ann Arbor, Mich.) to 1 μM and reaction allowed to proceed for 2 hours at room temperature. Release of fluorescence was monitored in a CytoFluor Multiplate Reader. Cells expressing the highest amount of FAAH activity were selected for study with FAAH inhibitors.
(§3) Assays are performed on either cell lysate or microsome fractions prepared as described or in whole cell format employing either the fluorescent substrate AAMCA (Cayman chemical, Ann Arbor, Mich.,) or ^3H-anandmaide ([ETHANOLAMINE-1-3H]American Radiolabeled Chemicals; 1 mCi/ml). The cell lysate or microsome assay is performed in Costar black wall, clear bottom plates by adding FAAH_CHO (whole cell, cell lysate or microsome) in assay buffer (50 mM Phosphate, pH 8.0, 1 mM EDTA, 200 mM KCl, 0.2% glycerol, 0.1% fatty acid free BSA) to each well, followed by either DMSO or compound and allowed to incubate at 22-25° C. for fifteen minutes. AAMCA substrate was used to achieve a final concentration of 1 μM and reaction allowed to proceed at room temperature for 1-3 hours. Fluorescent release as a measure of FAAH activity was monitored by reading the plate in a CytoFluor Multiplate Reader ([…]). Whole cell assay is conducted with cells harvested after rinsing tissue culture flasks three times with Ca^++Mg^++ free PBS, incubating for 10 mm in Enzyme free dissociation media and centrifuging for 5 minutes at 1,000 rpm in table top centrifuge. Cells are resuspended in assay buffer at desired cell number in (4×10^4 cells/assay in 96-well format; 1×10^4 cells/assay in 384-well format) and assayed as described.
Compound CCNC(=O)c1ccc2cc(-c3c(Sc4ccc(Cl)cc4)cnn3C3CCCCO3)ccc2n1 (centres unmarked) [Example 402] has an IC50 of 9.1 nM. For CC(C)(O)c1ccc2cc(-c3c(Sc4ccc(Cl)cc4)cnn3C3CCCCO3)ccc2n1 (centres unmarked) [Example 403], the IC50 was 63 nM. Work on CC(=O)N1CCc2cc(-c3c(Sc4ccc(Cl)cc4)cnn3C3CCCCO3)ccc2C1 (centres unmarked) [Example 404] yielded an IC50 of 25 nM. N#Cc1ccc2cc(-c3c(Sc4ccc(Cl)cc4)cnn3C3CCCCO3)ccc2n1 (centres unmarked) [Example 405] was tested, and the IC50 was 35 nM. Compound CCOC(=O)c1cnc2cc(-c3c(Sc4ccc(Cl)cc4)cnn3C3CCCCO3)ccc2c1 (centres unmarked) [Example 407] has an IC50 of 1.94 nM.

Same assay, conditions: read-out: Human whole cell
In the case of CS(=O)(=O)c1ccc(-c2nn(-c3ccc(F)cc3)cc2Sc2ccc(Cl)cc2)cc1 [Ex 1], the IC50 is reported as 36 nM. CS(=O)(=O)c1ccc(-c2nn(-c3ccncc3)cc2Sc2ccc(Cl)cc2)cc1 [Ex 5] was tested, and the IC50 was 48 nM. For CS(=O)(=O)c1ccc(-c2nn(C3CCCC3)cc2Sc2ccc(Cl)cc2)cc1 [Ex 23], the IC50 was 141 nM.

Each compound was assayed against T2, FAAH (Rattus norvegicus, UniProt P97612) (assay: FAAH whole cell assay, CHO cells expressing rat FAAH). Details: not given.
T2 construct: expressed in transfected cells; cDNA by RT-PCR from brain cDNA (BD Biosciences)
T2 sequence (P97612 1-579): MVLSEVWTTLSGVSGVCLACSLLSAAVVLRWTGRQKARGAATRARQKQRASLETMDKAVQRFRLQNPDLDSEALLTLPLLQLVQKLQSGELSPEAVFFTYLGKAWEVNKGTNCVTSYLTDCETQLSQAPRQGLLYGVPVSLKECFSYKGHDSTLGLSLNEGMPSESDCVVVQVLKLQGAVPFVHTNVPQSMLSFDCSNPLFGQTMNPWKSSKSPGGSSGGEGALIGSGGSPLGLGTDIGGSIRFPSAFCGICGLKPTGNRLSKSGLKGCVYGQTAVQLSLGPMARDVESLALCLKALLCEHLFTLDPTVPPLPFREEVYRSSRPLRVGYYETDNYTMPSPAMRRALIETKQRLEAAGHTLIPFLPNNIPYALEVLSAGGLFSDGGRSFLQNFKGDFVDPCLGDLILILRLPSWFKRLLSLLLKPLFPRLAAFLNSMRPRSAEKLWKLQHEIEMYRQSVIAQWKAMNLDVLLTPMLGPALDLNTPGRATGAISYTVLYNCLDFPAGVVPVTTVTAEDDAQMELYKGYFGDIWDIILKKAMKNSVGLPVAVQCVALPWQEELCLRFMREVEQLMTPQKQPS
Format: cell-based
Excerpt: as §2, §3
For CS(=O)(=O)c1ccc(-c2nn(-c3ccc(F)cc3)cc2Sc2ccc(Cl)cc2)cc1 [Ex 1], the IC50 was 18 nM. CS(=O)(=O)c1ccc(-c2nn(-c3ccncc3)cc2Sc2ccc(Cl)cc2)cc1 [Ex 5] gave an IC50 of 16 nM. CS(=O)(=O)c1ccc(-c2nn(C3CCCC3)cc2Sc2ccc(Cl)cc2)cc1 [Ex 23] showed an IC50 of 86 nM.

What follows are compounds tested against T1, FAAH (assay: FAAH enzyme assay, lysate of CHO cells expressing human FAAH). Details: CHO cell lysate, read-out: Human Lysate.
Format: biochemical
Excerpt: as §1
CHO cells expressing FAAH were used to prepare either crude cell lysate or microsome fractions. To harvest cells, tissue culture media was decanted, the monolayer washed three times with Ca^++Mg^++ free PBS and cells recovered after 15 min in enzyme free dissociation media (Millipore Corp, Billerica, Mass.). Cells were collected by centrifuging at 2000 rpm for 15 min. and the cell pellet re-suspended with 50 mM HEPES (pH 7.4) containing 1 mM EDTA and the protease inhibitors aprotinin (1 mg/ml) and leupeptin (100 μM). The suspension was sonicated at 4° C. and the cell lysate recovered after centrifuging at 12,000×g (14,600 rpm, SS34 rotor) for 20 min at 4° C. to form a crude pellet of cell debris, nuclei, peroxisomes, lysosomes, and mitochondria; the supernatant or cell lysate was used for FAAH enzyme assay. In some cases, microsomes fractions enriched in FAAH were prepared by centrifuging the cell lysate further at 27,000 rpm (100,000×g) in SW28 rotor for 50 minutes at 4° C. The pellet containing FAAH-enriched microsomes was re-suspend in 50 mM HEPES, (pH 7.4) 1 mM EDTA, and any remaining DNA sheared by passage of material through a 23 gauge needle and aliquots of enzyme were store at −80° C. prior to use.
(American Radiolabeled Chemicals; 1 mCi/ml) with FAAH (Life Sciences (1995), 56, 1999-2005 and Journal of Pharmacology and Experimented Therapeutics (1997), 283, 729-734), Analytical. Biochemistry (2003), 318, 270-5. In addition, routine assays were performed monitoring hydrolysis of arachidonyl-7-amino-4-methylcoumarin amide (AAMCA) by following increase in fluorescence upon release of 7-amino 4-methyl coumarin (λEX=355 nm, (λEM=460 nm). Analytical. Biochemistry (2005). 343, 143-51.
as §3
Alternatively, assays are performed using anandamide [ethanolamine 1-^3H] (specific activity of 10 Ci/mmol) diluted with cold anandamide to achieve a final assay concentration of 1 μM anandamide (˜50,000 cpm). Enzyme (CHO cell lysate, brain or liver homogenate) is incubated in assay buffer (50 mM Phosphate, pH 8.0, 1 mM EDTA, 200 mM KCl, 0.2% glycerol, 0.1% fatty acid free BSA) with inhibitor at 25° C. for 30 minutes. The reaction was terminated by addition of 2 volumes of chloroform:methanol (1:1) and mixed by vortexing. […]
In the case of CS(=O)(=O)c1ccc(-c2nn(-c3ccc(F)cc3)cc2Sc2ccc(Cl)cc2)cc1 [Ex 1], the IC50 is reported as 16 nM. In the case of CS(=O)(=O)c1ccc(-c2nn(-c3ccncc3)cc2Sc2ccc(Cl)cc2)cc1 [Ex 5], the IC50 is reported as 28 nM. CS(=O)(=O)c1ccc(-c2nn(C3CCCC3)cc2Sc2ccc(Cl)cc2)cc1 [Ex 23] gave an IC50 of 143 nM.

Same assay, conditions: cell lysate, read-out: FAAH Human Cell Lysate IC50
With OC(c1ccc2cc(-c3nn(CCF)cc3Sc3ccc(Cl)cc3)ccc2n1)C(F)(F)F (centres unmarked) [Example 373] the IC50 was 49 nM. OCc1ccc2cc(-c3n[nH]cc3Sc3ccc(Cl)cc3)ccc2n1 [Example 375] was tested, and the IC50 was 11 nM. CCC(=O)N1CCc2cc(-c3n[nH]cc3Sc3ccc(Cl)cc3)ccc2C1 [Example 376] showed an IC50 of 168 nM. Work on CC(=O)N1CCc2cc(-c3nn(C(C)C)cc3Sc3ccc(Cl)cc3)ccc2C1 [Example 377] yielded an IC50 of 33 nM. FC(F)c1ccc2cc(-c3nn(-c4ccccn4)cc3Sc3ccc(Cl)cc3)ccc2n1 [Example 379] was tested, and the IC50 was 4.9 nM. Compound Fc1ccc(-n2cc(Sc3ccc(Cl)cc3)c(-c3ccc4nc(C(F)F)ccc4c3)n2)cc1 [Example 380] has an IC50 of 24 nM. FC(F)c1ccc2cc(-c3nn(C4CC4)cc3Sc3ccc(Cl)cc3)ccc2n1 [Example 381] showed an IC50 of 9.5 nM. Work on CCn1cc(-n2cc(Sc3ccc(Cl)cc3)c(-c3ccc4nc(C(F)F)ccc4c3)n2)cn1 [Example 382] yielded an IC50 of 4.9 nM. Compound FC(F)c1ccc2cc(-c3nn(C4CC4)cc3Sc3ccc(Cl)cn3)ccc2n1 [Example 383] has an IC50 of 29 nM. Work on Cc1ccc2cc(-c3nn(C4CC4)cc3Sc3ccc(Cl)cc3)ccc2n1 [Example 384] yielded an IC50 of 18 nM. Work on Cc1ccc2cc(-c3n[nH]cc3Sc3ccc(Cl)cc3)ccc2n1 [Example 385] yielded an IC50 of 192 nM. With Clc1ccc(Sc2cn(C3CC3)nc2-c2ccc3nc(Cl)ccc3c2)cc1 [Example 386] the IC50 was 94 nM. With CCOC(=O)c1cnc2cc(-c3n[nH]cc3Sc3ccc(Cl)cc3)cnc2c1 [Example 387] the IC50 was 14 nM. With CCC(=O)N1CCc2cc(-c3nn(CCF)cc3Sc3ccc(Cl)cc3)ccc2C1 [Example 390] the IC50 was 62 nM. Compound OCc1cnc2cc(-c3nn(CCF)cc3Sc3ccc(Cl)cc3)ccc2c1 [Example 391] has an IC50 of 24 nM. Work on CCNC(=O)c1cnc2cc(-c3nn(CCF)cc3Sc3ccc(Cl)cc3)cnc2c1 [Example 392] yielded an IC50 of 47 nM. CCOC(=O)c1cnc2cc(-c3nn(CCF)cc3Sc3ccc(Cl)cc3)cnc2c1 [Example 393] showed an IC50 of 16 nM. Work on CCNC(=O)c1cnc2cc(-c3nn(CCF)cc3Sc3ccc(Cl)cc3)ccc2c1 [Example 394] yielded an IC50 of 15 nM. NC(=O)c1ccc2cc(-c3nn(C4CC4)cc3Sc3ccc(Cl)cn3)ccc2n1 [Example 396] was tested, and the IC50 was 14.8 nM. With N#Cc1ccc2cc(-c3nn(C4CC4)cc3Sc3ccc(Cl)cn3)ccc2n1 [Example 397] the IC50 was 172 nM. In the case of CCOC(=O)c1ccc2cc(-c3n[nH]cc3Sc3ccc(Cl)cn3)ccc2n1 [Example 398], the IC50 is reported as 0.77 nM. CCOC(=O)c1ccc2cc(-c3nn(C4CC4)cc3Sc3ccc(Cl)cn3)ccc2n1 [Example 399] showed an IC50 of 11 nM. With CN(C)C(=O)c1ccc2cc(-c3nn(C4CC4)cc3Sc3ccc(Cl)cc3)ccc2n1 [Example 400] the IC50 was 39 nM. With CN(C)C(=O)c1ccc2cc(-c3nn(C4CC4)cc3Sc3ncc(Cl)cn3)ccc2n1 [Example 401] the IC50 was 291 nM.

Source: US20110144056A1, “PYRAZOLE DERIVATIVES USEFUL AS INHIBITORS OF FAAH” (priority 2008, published 2011)
